In US20200288710A1, “SUBSTITUTED SULPHONAMIDES FOR CONTROLLING ANIMAL PESTS” (BAYER CROPSCIENCE AKTIENGESELLSCHAFT, priority 2016, published 2020):

How the values were obtained:
Myzus persicae [1] = experiment: Myzus persicae oral test; type: in vivo; settings: 120 h, 20 ppm, oral uptake, after 5 days, read-out: efficacy
Method: Myzus persicae—Oral Test Solvent: 100 parts by weight of acetone To produce a suitable preparation of active compound, 1 part by weight of active compound is dissolved using the specified parts by weight of solvent and made up with water until the desired concentration is attained. 50 μl of the active compound preparation are transferred into microtitre plates and made up to a final volume of 200 μl with 150 μl of IPL41 insect medium (33%+15% sugar). Subsequently, the plates are sealed with parafilm, which a mixed population of green peach aphids (Myzus persicae) within a second microtitre plate is able to puncture and imbibe the solution through it. After 5 days, the efficacy in % is determined. 100% means that all the aphids have been killed; 0% means that no aphids have been killed.

Myzus persicae [2] = experiment: Myzus persicae spray test (Chinese cabbage leaf discs); type: in vivo; settings: foliar, 120 h, 500 g/ha, after 5-6 days, read-out: efficacy
Method: Myzus persicae—Spray Test Solvent: 78 parts by weight of acetone • • 1.5 parts by weight of dimethylformamide Emulsifier: alkylaryl polyglycol ether To produce a suitable preparation of active compound, 1 part by weight of active compound is dissolved using the specified parts by weight of solvent and made up with water containing an emulsifier concentration of 1000 ppm until the desired concentration is attained. To produce further test concentrations, the formulation is diluted with emulsifier-containing water. Discs of Chinese cabbage leaves (Brassica pekinensis) infested by all stages of the green peach aphid (Myzus persicae) are sprayed with an active compound preparation of the desired concentration. After 5-6 days, the efficacy in % is determined. 100% means that all the aphids have been killed; 0% means that no aphids have been killed.

SMILES | pest or weed control at 20 ppm (Myzus persicae [1]) [%] | pest or weed control at 500 g/ha (Myzus persicae [2]) [%]
COc1cc(C)ccc1S(=O)(=O)NC(=O)c1cn(C)c(-c2c(F)cccc2F)n1 [Example 447] | 100 | 90
Cc1ccccc1S(=O)(=O)NC(=O)c1cc(C)n(-c2ncccc2Br)n1 [Example 297] | 100 | 90
Cn1cc(C(=O)NS(=O)(=O)c2ccccc2Br)nc1-c1ncccc1Cl [Example 585] | 100 | 100
Cn1cc(C(=O)NS(=O)(=O)c2ccccc2Cl)nc1-c1c(F)cccc1F [Example 91] | 100 | 90
Cc1ccc(F)c(S(=O)(=O)NC(=O)c2cn(C)c(-c3c(F)cccc3F)n2)c1 [Example 454] | 100 | 90
Cn1cc(C(=O)NS(=O)(=O)c2sc(Cl)cc2Br)nc1-c1c(F)cccc1F [Example 211] | 100 | 100
Cn1cc(C(=O)NS(=O)(=O)c2ccccc2Cl)nc1-c1ccccc1C(F)(F)F [Example 115] | 90 | 100
Cn1cc(C(=O)NS(=O)(=O)c2ccccc2C(F)(F)F)nc1-c1c(F)cccc1F [Example 26] | 100 | 100
COc1ccc(Cl)c(S(=O)(=O)NC(=O)c2nc(-c3c(F)cccc3F)c(C)[nH]2)c1 [Example 148] | 100 | 90
COc1ccccc1S(=O)(=O)NC(=O)c1cn(C)c(-c2ncccc2Cl)n1 [Example 574] | 100 | 100
Cn1cc(C(=O)NS(=O)(=O)c2ccccc2Cl)nc1-c1cccnc1Cl [Example 490] | 100 | 90
CCc1ccsc1S(=O)(=O)NC(=O)c1cn(C)c(-c2ncccc2F)n1 [Example 604] | 90 | 90
COc1ccc(Cl)c(S(=O)(=O)NC(=O)c2cc(C)n(-c3ncccc3Br)n2)c1 [Example 301] | 90 | 100
Cn1c(C(=O)NS(=O)(=O)c2ccccc2Br)cnc1-c1c(F)cccc1F [Example 162] | 100 | 90
Cc1ccc(F)cc1S(=O)(=O)NC(=O)c1cn(C)c(-c2cccnc2Cl)n1 [Example 566] | 100 | 100
COc1ccccc1S(=O)(=O)NC(=O)c1cn(C)c(-c2c(F)cccc2Cl)n1 [Example 111] | 100 | 100
COc1cccc(S(=O)(=O)NC(=O)c2cn(C)c(-c3c(F)cccc3F)n2)c1 [Example 388] | 100 | 90
COc1ccc(F)cc1S(=O)(=O)NC(=O)c1cn(C)c(-c2ncccc2Cl)n1 [Example 591] | 100 | 100
Cn1cc(C(=O)NS(=O)(=O)c2ccccc2)nc1-c1c(F)cccc1Cl [Example 112] | 100 | 90
COc1ccc(F)cc1S(=O)(=O)NC(=O)c1cn(C)c(-c2c(F)cccc2F)n1 [Example 17] | 100 | 90
Cn1cc(C(=O)NS(=O)(=O)CC(F)(F)F)nc1-c1ccccc1Cl [Example 66] | 100 | 100
COc1cccc(F)c1S(=O)(=O)NC(=O)c1cn(C)c(-c2c(F)cccc2F)n1 [Example 381] | 100 | 100
Cn1cc(C(=O)NS(=O)(=O)c2cnccc2Cl)nc1-c1ccccc1Cl [Example 220] | 100 | 100
Cc1ccsc1S(=O)(=O)NC(=O)c1cn(C)c(-c2ncccc2Cl)n1 [Example 592] | 100 | 100
COc1ccc(F)c(S(=O)(=O)NC(=O)c2cn(C)c(-c3c(F)cccc3Cl)n2)c1 [Example 157] | 100 | 100
COc1ccc(Br)cc1S(=O)(=O)NC(=O)c1cn(C)c(-c2cccc(Cl)c2Cl)n1 [Example 559] | 100 | 100
Cn1nc(C(=O)NS(=O)(=O)c2ccccc2Cl)nc1-c1c(F)cccc1F [Example 11] | 100 | 100
Cc1ccccc1S(=O)(=O)NC(=O)c1nc(-c2c(F)cccc2F)n(C)n1 [Example 159] | 100 | 90

SMILES | pest or weed control at 20 ppm (Myzus persicae [1]) [%] | pest or weed control at 500 g/ha (Myzus persicae [2]) [%]
COc1ccc([N+](=O)[O-])c(S(=O)(=O)NC(=O)c2cn(C)c(-c3c(F)cccc3F)n2)c1 [Example 389] | 100 | 90
Cc1ccccc1S(=O)(=O)NC(=O)c1nc(-c2c(F)cccc2F)c(C)[nH]1 [Example 147] | 100 | 100
COc1ccc(Cl)c(C)c1S(=O)(=O)NC(=O)c1cn(C)c(-c2c(F)cccc2F)n1 [Example 433] | 100 | 90
COc1ccccc1S(=O)(=O)NC(=O)c1cn(C)c(-c2sccc2Cl)n1 [Example 549] | 100 | 100
CCn1cc(C(=O)NS(=O)(=O)c2ccccc2C)nc1-c1c(F)cccc1F [Example 570] | 100 | 100
Cc1cccc(C(F)(F)F)c1S(=O)(=O)NC(=O)c1cn(C)c(-c2ncccc2F)n1 [Example 563] | 100 | 100
Cn1cc(C(=O)NS(=O)(=O)c2ccccc2F)nc1-c1ccccc1Cl [Example 57] | 100 | 100
Cn1cc(C(=O)NS(=O)(=O)c2ccccc2Cl)nc1-c1ncccc1Br [Example 578] | 100 | 100
CCn1cc(S(=O)(=O)NC(=O)c2cn(C)c(-c3c(F)cccc3F)n2)c(C)n1 [Example 181] | 90 | 100
Cn1cc(C(=O)NS(=O)(=O)c2ccccc2C(F)(F)F)nc1-c1ccccc1F [Example 30] | 100 | 90
CCc1[nH]c(-c2c(F)cccc2F)nc1C(=O)NS(=O)(=O)C(C)C [Example 126] | 90 | 90
CCc1ccccc1S(=O)(=O)NC(=O)c1cc(C)n(-c2ncccc2Br)n1 [Example 298] | 100 | 100
Cc1ccccc1-c1nc(C(=O)NS(=O)(=O)c2ccccc2C(F)(F)F)cn1C [Example 28] | 100 | 100
Cn1cc(C(=O)NS(=O)(=O)c2ccccc2Br)nc1-c1ncccc1F [Example 564] | 100 | 100
Cn1cc(C(=O)NS(=O)(=O)c2ccccc2Cl)nc1-c1c(F)cccc1C#N [Example 501] | 100 | 100
Cc1cccc([N+](=O)[O-])c1S(=O)(=O)NC(=O)c1cn(C)c(-c2c(F)cccc2F)n1 [Example 367] | 100 | 90
CCS(=O)(=O)NC(=O)c1cn(-c2ccccc2)c(-c2ccccc2Cl)n1 [Example 75] | 90 | 100
COc1ccccc1S(=O)(=O)NC(=O)c1cn(C)c(-c2ccccc2Cl)n1 [Example 59] | 100 | 90
CCn1cc(C(=O)NS(=O)(=O)c2ccccc2OC)nc1-c1c(F)cccc1F [Example 569] | 100 | 100
COc1ccc(C)c(S(=O)(=O)NC(=O)c2cn(C)c(-c3cccnc3Cl)n2)c1 [Example 565] | 100 | 100
Cn1cc(C(=O)NS(=O)(=O)c2c(Cl)cccc2C(F)(F)F)nc1-c1ncccc1F [Example 609] | 100 | 90
Cn1cc(C(=O)NS(=O)(=O)c2c(Cl)cccc2Br)nc1-c1ncccc1Cl [Example 589] | 100 | 100
CCc1[nH]c(-c2cc(F)cc(F)c2)nc1C(=O)NS(=O)(=O)C(C)C [Example 127] | – | 90
CN(C)S(=O)(=O)NC(=O)c1cn(C)c(-c2ccccc2Cl)n1 [Example 204] | – | 100
CCS(=O)(=O)NC(=O)c1cn(C)c(-c2ccccc2C)n1 [Example 89] | – | 90
COc1cc(C)c(S(=O)(=O)NC(=O)c2cn(C)c(-c3c(F)cccc3F)n2)cc1C [Example 138] | – | 100
COc1ccccc1S(=O)(=O)NC(=O)c1cn(C)c(-c2ccccc2[N+](=O)[O-])n1 [Example 529] | – | 100
